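Interpolation was linear, between the two tested concentrations surrounding the appropriate level; five concentrations were tested over 48 hours in 96-well plates. TGI is the concentration that stops growth completely.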
Tests used:
Test in all cases: inhibition of tumour cell growth, NCI panel, 48 h
[1] = tested on: SNB-78 CNS
[2] = tested on: HCT-15 colon
[3] = tested on: SK-OV-3 ovarian
[4] = tested on: OVCAR-8 ovarian
[5] = tested on: RXF-631 renal
[6] = tested on: OVCAR-3 ovarian
[7] = tested on: K-562 leukemia
[8] = tested on: NCI-H23 lung
[9] = tested on: HCC-2998 colon
[10] = tested on: A549 NSCLC
[11] = tested on: SW-620 colon
[12] = tested on: LOX IMVI melanoma
[13] = tested on: HOP-62 NSCLC
[14] = tested on: HT29 colon
[15] = tested on: 786-0 renal
[16] = tested on: M14 melanoma
[17] = tested on: MALME-3M melanoma
[18] = tested on: OVCAR-5 ovarian
[19] = tested on: KM20L2 colon
[20] = tested on: LXFL 529 NSCLC
[21] = tested on: NCI-H522 lung
[22] = tested on: XF 498 CNS
[23] = tested on: SF-295 CNS
[24] = tested on: HOP-92 NSCLC
[25] = tested on: SNB-19 CNS
[26] = tested on: ACHN renal
[27] = tested on: NCI-H460 lung
[28] = tested on: U251 CNS
[29] = tested on: COLO 205 colon
[30] = tested on: HCT-116 colon
[31] = tested on: SK-MEL-28 melanoma
[32] = tested on: TK-10 renal
[33] = tested on: M19-MEL melanoma
[34] = tested on: KM12 colon
[35] = tested on: SR leukemia
[36] = tested on: NCI-H226 lung
[37] = tested on: SK-MEL-2 melanoma
[38] = tested on: DLD-1 colon
[39] = tested on: HL-60(TB) leukemia
[40] = tested on: SF-268 CNS
[41] = tested on: CAKI-1 renal
[42] = tested on: UO-31 renal
[43] = tested on: SN12C renal
[44] = tested on: RPMI-8226 leukemia
[45] = tested on: UACC-257 melanoma
[46] = tested on: DMS 273 small cell lung
[47] = tested on: MOLT-4 leukemia
[48] = tested on: SNB-75 CNS
[49] = tested on: SF-539 CNS
[50] = tested on: OVCAR-4 ovarian
[51] = tested on: IGROV1 ovarian
[52] = tested on: UACC-62 melanoma
[53] = tested on: SK-MEL-5 melanoma
[54] = tested on: RXF 393 renal
[55] = tested on: HOP-18 NSCLC
[56] = tested on: A498 renal
[57] = tested on: EKVX NSCLC
[58] = tested on: CCRF-CEM leukemia
[59] = tested on: DMS 114 small cell lung

## CCCCCCCCCCCCCCCCCc1nnc(N)o1
[1]
  TGI: > 100 µM
[2]
  TGI: > 100 µM
[3]
  TGI: > 100 µM
[4]
  TGI: > 100 µM
[5]
  TGI: > 100 µM
[6]
  TGI: > 100 µM
[7]
  TGI: > 100 µM
[8]
  TGI: > 100 µM
[9]
  TGI: > 100 µM
[10]
  TGI: > 100 µM
[11]
  TGI: > 100 µM
[12]
  TGI: > 100 µM
[13]
  TGI: > 100 µM
[14]
  TGI: > 100 µM
[15]
  TGI: > 100 µM
[16]
  TGI: > 100 µM
[17]
  TGI: > 100 µM
[18]
  TGI: > 100 µM
[19]
  TGI: > 100 µM
[20]
  TGI: > 100 µM
[21]
  TGI: > 100 µM
[22]
  TGI: > 100 µM
[23]
  TGI: > 100 µM
[24]
  TGI: > 100 µM
[25]
  TGI: > 100 µM
[26]
  TGI: > 100 µM
[27]
  TGI: > 100 µM
[28]
  TGI: > 100 µM
[29]
  TGI: > 100 µM
[30]
  TGI: > 100 µM
[31]
  TGI: > 100 µM
[32]
  TGI: > 100 µM
[33]
  TGI: > 100 µM
[34]
  TGI: > 100 µM
[35]
  TGI: > 100 µM
[36]
  TGI: > 100 µM
[37]
  TGI: > 100 µM
[38]
  TGI: > 100 µM
[39]
  TGI: > 100 µM
[40]
  TGI: > 100 µM
[41]
  TGI: > 100 µM
[42]
  TGI: > 100 µM
[43]
  TGI: > 100 µM
[44]
  TGI: > 100 µM
[45]
  TGI: > 100 µM
[46]
  TGI: > 100 µM
[47]
  TGI: > 100 µM
[48]
  TGI: > 100 µM
[49]
  TGI: > 100 µM
[50]
  TGI: > 100 µM
[51]
  TGI: > 100 µM
[52]
  TGI: > 100 µM

## O=C(O)C1CC2CC(=O)C1C2 (centres undefined)
[1]
  TGI: > 100 µM
[3]
  TGI: > 100 µM
[4]
  TGI: > 100 µM
[53]
  TGI: > 100 µM
[5]
  TGI: > 100 µM
[6]
  TGI: > 100 µM
[7]
  TGI: > 100 µM
[8]
  TGI: > 100 µM
[10]
  TGI: > 100 µM
[54]
  TGI: > 100 µM
[11]
  TGI: > 100 µM
[12]
  TGI: > 100 µM
[13]
  TGI: > 100 µM
[14]
  TGI: > 100 µM
[15]
  TGI: > 100 µM
[16]
  TGI: > 100 µM
[17]
  TGI: > 100 µM
[55]
  TGI: > 100 µM
[18]
  TGI: > 100 µM
[19]
  TGI: > 100 µM
[20]
  TGI: > 100 µM
[21]
  TGI: > 100 µM
[22]
  TGI: > 100 µM
[23]
  TGI: > 100 µM
[24]
  TGI: > 100 µM
[25]
  TGI: > 100 µM
[26]
  TGI: > 100 µM
[27]
  TGI: > 100 µM
[28]
  TGI: > 100 µM
[29]
  TGI: > 100 µM
[30]
  TGI: > 100 µM
[31]
  TGI: > 100 µM
[32]
  TGI: > 100 µM
[33]
  TGI: > 100 µM
[34]
  TGI: > 100 µM
[35]
  TGI: > 100 µM
[36]
  TGI: > 100 µM
[37]
  TGI: > 100 µM
[38]
  TGI: > 100 µM
[39]
  TGI: > 100 µM
[40]
  TGI: > 100 µM
[56]
  TGI: > 100 µM
[41]
  TGI: > 100 µM
[42]
  TGI: > 100 µM
[43]
  TGI: > 100 µM
[44]
  TGI: > 100 µM
[57]
  TGI: > 100 µM
[45]
  TGI: > 100 µM
[46]
  TGI: > 100 µM
[47]
  TGI: > 100 µM
[48]
  TGI: > 100 µM
[49]
  TGI: > 100 µM
[50]
  TGI: > 100 µM
[51]
  TGI: > 100 µM
[52]
  TGI: > 100 µM
[58]
  TGI: > 100 µM

## Nc1ccc(C2=Nc3ccccc3SC(c3ccccc3O)C2)cc1 (centres undefined)
[2]
  TGI: > 100 µM
[3]
  TGI: > 100 µM
[4]
  TGI: > 100 µM
[53]
  TGI: > 100 µM
[5]
  TGI: > 100 µM
[6]
  TGI: > 100 µM
[7]
  TGI: 51.6 µM
[8]
  TGI: > 100 µM
[9]
  TGI: > 100 µM
[10]
  TGI: > 100 µM
[54]
  TGI: > 100 µM
[11]
  TGI: > 100 µM
[12]
  TGI: > 100 µM
[13]
  TGI: > 100 µM
[14]
  TGI: > 100 µM
[15]
  TGI: 73.6 µM
[16]
  TGI: > 100 µM
[17]
  TGI: > 100 µM
[55]
  TGI: > 100 µM
[18]
  TGI: > 100 µM
[19]
  TGI: > 100 µM
[20]
  TGI: > 100 µM
[21]
  TGI: 64.9 µM
[22]
  TGI: 78.5 µM
[23]
  TGI: > 100 µM
[25]
  TGI: > 100 µM
[26]
  TGI: > 100 µM
[27]
  TGI: > 100 µM
[28]
  TGI: > 100 µM
[29]
  TGI: > 100 µM
[31]
  TGI: > 100 µM
[32]
  TGI: > 100 µM
[33]
  TGI: > 100 µM
[34]
  TGI: > 100 µM
[36]
  TGI: > 100 µM
[37]
  TGI: > 100 µM
[38]
  TGI: > 100 µM
[39]
  TGI: 62.7 µM
[40]
  TGI: > 100 µM
[56]
  TGI: 74.1 µM
[41]
  TGI: > 100 µM
[42]
  TGI: > 100 µM
[43]
  TGI: > 100 µM
[44]
  TGI: 49.7 µM
[57]
  TGI: > 100 µM
[45]
  TGI: > 100 µM
[46]
  TGI: > 100 µM
[47]
  TGI: 58.5 µM
[48]
  TGI: 93.3 µM
[49]
  TGI: > 100 µM
[50]
  TGI: > 100 µM
[51]
  TGI: > 100 µM
[52]
  TGI: > 100 µM
[58]
  TGI: 32.5 µM
[59]
  TGI: 49.4 µM

## COc1cc2c(Cc3cc(OCc4ccccc4)ccc3N)nccc2c(OC)c1OC
[1]
  TGI: > 10 µM
[2]
  TGI: > 10 µM
[3]
  TGI: > 10 µM
[4]
  TGI: > 10 µM
[53]
  TGI: > 10 µM
[5]
  TGI: > 10 µM
[6]
  TGI: > 10 µM
[7]
  TGI: > 10 µM
[8]
  TGI: > 10 µM
[9]
  TGI: > 10 µM
[10]
  TGI: > 10 µM
[54]
  TGI: > 10 µM
[11]
  TGI: > 10 µM
[12]
  TGI: > 10 µM
[13]
  TGI: > 10 µM
[14]
  TGI: > 10 µM
[15]
  TGI: > 10 µM
[16]
  TGI: > 10 µM
[17]
  TGI: > 10 µM
[55]
  TGI: > 10 µM
[18]
  TGI: > 10 µM
[19]
  TGI: > 10 µM
[20]
  TGI: > 10 µM
[21]
  TGI: > 10 µM
[22]
  TGI: > 10 µM
[23]
  TGI: > 10 µM
[24]
  TGI: > 10 µM
[25]
  TGI: > 10 µM
[26]
  TGI: > 10 µM
[27]
  TGI: > 10 µM
[28]
  TGI: > 10 µM
[29]
  TGI: > 10 µM
[30]
  TGI: > 10 µM
[31]
  TGI: > 10 µM
[32]
  TGI: > 10 µM
[33]
  TGI: > 10 µM
[34]
  TGI: > 10 µM
[35]
  TGI: > 10 µM
[36]
  TGI: > 10 µM
[37]
  TGI: > 10 µM
[38]
  TGI: > 10 µM
[39]
  TGI: > 10 µM
[40]
  TGI: > 10 µM
[42]
  TGI: > 10 µM
[43]
  TGI: > 10 µM
[44]
  TGI: > 10 µM
[57]
  TGI: > 10 µM
[45]
  TGI: > 10 µM
[46]
  TGI: > 10 µM
[47]
  TGI: > 10 µM
[48]
  TGI: > 10 µM
[49]
  TGI: > 10 µM
[51]
  TGI: > 10 µM
[52]
  TGI: > 10 µM
[58]
  TGI: > 10 µM
[59]
  TGI: > 10 µM

Source: PubChem BioAssay (NCI)
